{
  "source": "ChEMBL document CHEMBL1201862",
  "about": "“PubChem BioAssay data set” (2004)",
  "key": {"[1]": {"test_system": "HEK293", "test": "Fluorescence-based counterscreen for potentiators or agonists of NPY-Y2: cell-based high-throughput dose response assay to identify inhibitors of cyclic nucleotide gated ion channel (CNGC) activity. In this assay, the parental HEK293 cell line transfected with a cyclic-nucleotide gated ion channel (CNGC)-based cAMP sensor is used to measure inhibition of isoproterenol-induced CNGC activity by test compound.", "assay_type": "functional", "conditions": "Homo sapiens"}, "[2]": {"target": "Neuropeptide Y receptor type 2 (Homo sapiens, UniProt P49146)", "sequence (P49146 whole entry)": "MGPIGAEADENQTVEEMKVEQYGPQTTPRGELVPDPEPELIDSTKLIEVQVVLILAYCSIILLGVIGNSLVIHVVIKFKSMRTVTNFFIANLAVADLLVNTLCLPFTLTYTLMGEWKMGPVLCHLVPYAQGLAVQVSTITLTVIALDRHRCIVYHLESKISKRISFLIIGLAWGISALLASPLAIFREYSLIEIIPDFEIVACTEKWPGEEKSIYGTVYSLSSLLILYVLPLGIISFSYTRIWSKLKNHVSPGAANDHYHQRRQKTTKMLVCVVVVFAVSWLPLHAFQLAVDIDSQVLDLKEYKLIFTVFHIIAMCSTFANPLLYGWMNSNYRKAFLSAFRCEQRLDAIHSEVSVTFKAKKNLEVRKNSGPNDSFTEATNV", "test": "Fluorescence-based cell-based high-throughput dose response assay for agonists of NPY-Y2. [Related pubchem assays: 1703 (Screening assay (CNGC inhibitors).), 1359 (Screening assay (NPY-Y2 potentiators or agonists).), 1304 (Screening assay (NPY-Y1 potentiators or agonists).), 1710 (Screening assay (NPY-Y2 agonists).), 1791 (Summary AID.)]", "assay_type": "functional"}, "[3]": {"target": "Neuropeptide Y receptor type 1 (Homo sapiens, UniProt P25929)", "sequence (P25929 whole entry)": "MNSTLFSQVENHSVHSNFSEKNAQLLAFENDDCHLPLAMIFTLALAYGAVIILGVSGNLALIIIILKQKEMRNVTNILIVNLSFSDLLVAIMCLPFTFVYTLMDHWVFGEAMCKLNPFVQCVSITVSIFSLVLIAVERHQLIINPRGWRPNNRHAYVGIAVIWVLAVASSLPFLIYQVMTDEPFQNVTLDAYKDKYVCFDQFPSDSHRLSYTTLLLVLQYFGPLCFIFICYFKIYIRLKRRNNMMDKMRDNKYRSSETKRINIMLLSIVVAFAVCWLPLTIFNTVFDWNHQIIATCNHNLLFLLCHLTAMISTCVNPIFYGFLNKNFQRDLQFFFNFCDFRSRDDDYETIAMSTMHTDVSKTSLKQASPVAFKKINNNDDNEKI", "test": "Fluorescence-based counterscreen for agonists of NPY-Y2: cell-based high-throughput dose response assay for agonists of NPY-Y1.", "assay_type": "functional"}, "[4]": {"test": "microbe, parasite or virus in culture", "assay_type": "functional", "conditions": "Mycobacterium tuberculosis"}, "[5]": {"target": "NS3 (Hepatitis C virus, UniProt A3EZJ3)", "sequence (A3EZJ3 whole entry)": "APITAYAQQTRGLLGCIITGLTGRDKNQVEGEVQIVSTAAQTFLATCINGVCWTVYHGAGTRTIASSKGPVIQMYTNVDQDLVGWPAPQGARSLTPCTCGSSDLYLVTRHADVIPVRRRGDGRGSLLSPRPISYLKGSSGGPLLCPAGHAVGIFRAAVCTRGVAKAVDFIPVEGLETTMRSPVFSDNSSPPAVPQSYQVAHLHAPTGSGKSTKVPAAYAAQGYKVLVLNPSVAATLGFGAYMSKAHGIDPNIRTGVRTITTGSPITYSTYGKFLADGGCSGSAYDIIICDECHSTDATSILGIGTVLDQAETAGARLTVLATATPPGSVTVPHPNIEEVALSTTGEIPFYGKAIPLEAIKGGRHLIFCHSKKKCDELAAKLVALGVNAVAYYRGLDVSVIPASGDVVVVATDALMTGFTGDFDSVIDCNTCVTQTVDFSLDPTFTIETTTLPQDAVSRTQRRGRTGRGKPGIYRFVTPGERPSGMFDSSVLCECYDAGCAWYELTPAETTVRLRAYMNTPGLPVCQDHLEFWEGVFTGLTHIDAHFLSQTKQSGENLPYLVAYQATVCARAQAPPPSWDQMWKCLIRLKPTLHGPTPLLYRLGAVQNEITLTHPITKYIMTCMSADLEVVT", "test": "PubChem AID 2173", "set-up": "species or system Hepacivirus hominis"}, "[6]": {"target": "T1, Heat shock factor protein 1 (Mus musculus, UniProt P38532)", "T1 sequence (P38532 whole entry)": "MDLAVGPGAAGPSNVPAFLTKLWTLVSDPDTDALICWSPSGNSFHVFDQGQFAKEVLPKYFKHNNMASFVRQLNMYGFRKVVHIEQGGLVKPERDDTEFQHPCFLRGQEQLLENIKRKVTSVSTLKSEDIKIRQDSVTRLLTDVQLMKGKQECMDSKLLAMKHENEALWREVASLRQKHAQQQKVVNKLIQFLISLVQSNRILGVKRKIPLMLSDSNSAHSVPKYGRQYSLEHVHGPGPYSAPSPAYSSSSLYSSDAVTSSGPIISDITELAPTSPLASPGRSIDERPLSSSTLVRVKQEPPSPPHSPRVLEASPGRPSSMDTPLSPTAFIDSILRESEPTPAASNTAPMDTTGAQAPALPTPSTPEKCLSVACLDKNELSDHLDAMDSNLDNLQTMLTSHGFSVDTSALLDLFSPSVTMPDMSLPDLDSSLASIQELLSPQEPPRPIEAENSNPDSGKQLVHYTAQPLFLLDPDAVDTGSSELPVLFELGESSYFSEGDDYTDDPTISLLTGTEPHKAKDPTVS", "test": "HSF1 potentiators in luciferase reporter cells, confirmation, cell-based, NIH3T3, luminescence, dose retest (AID 435004);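 note: stress induced by proteasome inhibitor MG132 added 30 min after compound; actives raise luminescence as potentiators of the MG132 stress response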", "assay_type": "functional"}, "[7]": {"target": "Induced myeloid leukemia cell differentiation protein Mcl-1 (Homo sapiens, UniProt Q07820)", "sequence (Q07820 whole entry)": "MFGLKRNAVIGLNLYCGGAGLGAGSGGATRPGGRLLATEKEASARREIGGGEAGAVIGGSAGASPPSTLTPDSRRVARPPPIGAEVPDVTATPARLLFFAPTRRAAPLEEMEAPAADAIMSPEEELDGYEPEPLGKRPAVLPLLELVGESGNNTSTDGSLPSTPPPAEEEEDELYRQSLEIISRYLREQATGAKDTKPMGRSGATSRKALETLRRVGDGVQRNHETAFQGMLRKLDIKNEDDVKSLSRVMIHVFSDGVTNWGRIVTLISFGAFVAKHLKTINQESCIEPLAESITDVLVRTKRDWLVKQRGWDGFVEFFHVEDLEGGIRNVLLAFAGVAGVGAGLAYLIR", "assay_type": "functional"}, "[8]": {"target": "Mothers against decapentaplegic homolog 3 (Homo sapiens, UniProt P84022)", "sequence (P84022 whole entry)": "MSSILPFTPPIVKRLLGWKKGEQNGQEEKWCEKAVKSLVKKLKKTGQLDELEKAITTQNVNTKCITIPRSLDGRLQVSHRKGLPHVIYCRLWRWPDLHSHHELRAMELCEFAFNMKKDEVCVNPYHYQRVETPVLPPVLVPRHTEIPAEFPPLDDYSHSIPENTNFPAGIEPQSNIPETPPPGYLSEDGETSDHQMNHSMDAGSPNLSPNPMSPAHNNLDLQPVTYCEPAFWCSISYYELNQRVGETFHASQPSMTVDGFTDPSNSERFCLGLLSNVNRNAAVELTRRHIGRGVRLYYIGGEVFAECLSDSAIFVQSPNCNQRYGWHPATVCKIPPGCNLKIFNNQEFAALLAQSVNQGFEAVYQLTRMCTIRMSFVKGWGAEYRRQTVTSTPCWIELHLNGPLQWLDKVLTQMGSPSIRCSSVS", "test": "Smad3 binding inhibitors, lysate ELISA, dose response, cell lysate, secondary confirmation, chemiluminescent ELISA, HEK293 lysate (AID 1058)", "assay_type": "functional"}},
  "note": "Active and inactive are the calls of the source.",
  "data": [
    {"smiles": "CCN(CC)S(=O)(=O)c1ccc2ncc(C(=O)NCCC3=CCCCC3)c(O)c2c1", "values": [
      {"measurement": "EC50", "setting": "[1]", "value": "10.1 µM (not active)"},
      {"measurement": "EC50", "setting": "[2]", "value": "13.8 µM (not active)"},
      {"measurement": "EC50", "setting": "[3]", "value": "13.3 µM (not active)"},
      {"measurement": "CC50", "setting": "[4]", "value": "> 40 µM (active)"}
    ]},
    {"smiles": "COc1ccc(NC2=NC(=O)/C(=C\\C=C\\c3ccco3)S2)cc1", "values": [
      {"measurement": "IC50", "setting": "[5]", "value": "25.9 µM (not active)"},
      {"measurement": "EC50", "setting": "[6]", "value": "> 260 µM (inactive)"},
      {"measurement": "IC50", "setting": "[7]", "value": "3.02 µM (active)"}
    ]},
    {"smiles": "O=C(O)c1cc2cc(O)ccc2[nH]1", "values": [
      {"measurement": "IC50", "setting": "[8]", "value": "1.77 µM (not active)"}
    ]}
  ]
}
